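Five compound concentrations were applied to cells in 96-well plates for 48 hours; endpoints were derived by simple linear interpolation of the resulting dose-response curve. GI50 marks 50% less growth. TGI marks complete inhibition of growth.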
How the values were obtained:
Assay in all cases: NCI anticancer screen, dose series, 48 h
[1] = test system: NCI-H460 lung
[2] = test system: A549 NSCLC
[3] = test system: HCT-116 colon
[4] = test system: SF-268 CNS
[5] = test system: SK-MEL-28 melanoma
[6] = test system: HOP-92 NSCLC
[7] = test system: SK-OV-3 ovarian
[8] = test system: MOLT-4 leukemia
[9] = test system: K-562 leukemia
[10] = test system: KM12 colon
[11] = test system: RPMI-8226 leukemia
[12] = test system: OVCAR-8 ovarian
[13] = test system: DLD-1 colon
[14] = test system: NCI-H522 lung
[15] = test system: OVCAR-3 ovarian
[16] = test system: LXFL 529 NSCLC
[17] = test system: COLO 205 colon
[18] = test system: UACC-257 melanoma
[19] = test system: HOP-62 NSCLC
[20] = test system: SR leukemia
[21] = test system: UO-31 renal
[22] = test system: SNB-19 CNS
[23] = test system: SW-620 colon
[24] = test system: ACHN renal
[25] = test system: SK-MEL-5 melanoma
[26] = test system: HCC-2998 colon
[27] = test system: TK-10 renal
[28] = test system: HL-60(TB) leukemia
[29] = test system: NCI-H226 lung
[30] = test system: HT29 colon
[31] = test system: IGROV1 ovarian
[32] = test system: UACC-62 melanoma
[33] = test system: SF-295 CNS
[34] = test system: M19-MEL melanoma
[35] = test system: SF-539 CNS
[36] = test system: CCRF-CEM leukemia
[37] = test system: U251 CNS
[38] = test system: NCI-H23 lung
[39] = test system: RXF 393 renal
[40] = test system: KM20L2 colon
[41] = test system: M14 melanoma
[42] = test system: CAKI-1 renal
[43] = test system: MALME-3M melanoma
[44] = test system: HCT-15 colon
[45] = test system: OVCAR-5 ovarian
[46] = test system: SN12C renal
[47] = test system: 786-0 renal
[48] = test system: A498 renal
[49] = test system: LOX IMVI melanoma
[50] = test system: SK-MEL-2 melanoma
[51] = test system: EKVX NSCLC
[52] = test system: OVCAR-4 ovarian
[53] = test system: SNB-75 CNS
[54] = test system: HOP-18 NSCLC

CCOC(=O)/C(C#N)=C1/Sc2c(ncn(/N=C/c3ccc(OC)cc3)c2=O)N1c1ccccc1
TGI [1]: > 100 µM
TGI [2]: > 100 µM
TGI [3]: > 100 µM
TGI [4]: 77.7 µM
TGI [5]: 81.5 µM
TGI [6]: 59 µM
TGI [7]: > 100 µM
TGI [8]: > 100 µM
TGI [9]: > 100 µM
TGI [10]: > 100 µM
TGI [11]: > 100 µM
TGI [12]: > 100 µM
TGI [13]: > 100 µM
TGI [14]: > 100 µM
TGI [15]: > 100 µM
TGI [16]: > 100 µM
TGI [17]: > 100 µM
TGI [18]: > 100 µM
TGI [19]: 62.3 µM
TGI [20]: > 100 µM
TGI [21]: > 100 µM
TGI [22]: > 100 µM
TGI [23]: > 100 µM
TGI [24]: > 100 µM
TGI [25]: > 100 µM
TGI [26]: > 100 µM
TGI [27]: > 100 µM
TGI [28]: > 100 µM
TGI [29]: > 100 µM
TGI [30]: > 100 µM
TGI [31]: > 100 µM
TGI [32]: > 100 µM
TGI [33]: 76.2 µM
TGI [34]: > 100 µM
TGI [35]: 34.8 µM
TGI [36]: > 100 µM
TGI [37]: > 100 µM
TGI [38]: > 100 µM

C1COCCOCCOCCOCCOCCO1.[Cl][Sn]([Cl])([c]1ccccc1)[c]1ccccc1
GI50 [1]: 15.1 µM
TGI [1]: 30.5 µM
GI50 [39]: 2.21 µM
TGI [39]: 4.06 µM
GI50 [2]: 20.2 µM
TGI [2]: 34.4 µM
GI50 [3]: 5.53 µM
TGI [3]: 17.3 µM
GI50 [40]: 7.02 µM
TGI [40]: 18.2 µM
GI50 [4]: 2.8 µM
TGI [4]: 8.65 µM
GI50 [5]: 2 µM
TGI [5]: 4.19 µM
GI50 [6]: 2.26 µM
TGI [6]: 4.52 µM
GI50 [7]: 16.6 µM
TGI [7]: 30.2 µM
GI50 [41]: 4.25 µM
TGI [41]: 12.4 µM
GI50 [42]: 0.478 µM
TGI [42]: 1.75 µM
GI50 [8]: 3.21 µM
TGI [8]: 14.5 µM
GI50 [9]: 2.44 µM
TGI [9]: 10.2 µM
GI50 [10]: 12.6 µM
TGI [10]: 26.4 µM
GI50 [43]: 1.99 µM
TGI [43]: 3.82 µM
GI50 [11]: 2.02 µM
TGI [11]: 6.15 µM
GI50 [12]: 4.97 µM
TGI [12]: 16.4 µM
GI50 [44]: 4.14 µM
TGI [44]: 13.5 µM
GI50 [45]: 17.8 µM
TGI [45]: 31.6 µM
GI50 [46]: 7.02 µM
TGI [46]: 20.4 µM
GI50 [14]: 0.766 µM
TGI [14]: 2.05 µM
GI50 [47]: 2.41 µM
TGI [47]: 5.51 µM
GI50 [15]: 4.88 µM
TGI [15]: 15.5 µM
GI50 [48]: 3.12 µM
TGI [48]: 11.9 µM
GI50 [49]: 2.36 µM
TGI [49]: 4.77 µM
GI50 [17]: 1.83 µM
TGI [17]: 4.34 µM
GI50 [18]: 2.08 µM
TGI [18]: 4.63 µM
GI50 [19]: 20.3 µM
TGI [19]: 35 µM
GI50 [21]: 14.1 µM
TGI [21]: 27.2 µM
GI50 [22]: 6.48 µM
TGI [22]: 14.5 µM
GI50 [23]: 1.65 µM
TGI [23]: 3.28 µM
GI50 [50]: 1.7 µM
TGI [50]: 3.25 µM
GI50 [24]: 10.9 µM
TGI [24]: 22.8 µM
GI50 [51]: 6.77 µM
TGI [51]: 19 µM
GI50 [25]: 4.86 µM
TGI [25]: 17.2 µM
GI50 [26]: 6.06 µM
TGI [26]: 18.9 µM
GI50 [27]: 2.78 µM
TGI [27]: 7.01 µM
GI50 [28]: 2.64 µM
TGI [28]: 7.55 µM
GI50 [29]: 11.5 µM
TGI [29]: 27.9 µM
GI50 [52]: 12.3 µM
TGI [52]: 26.3 µM
GI50 [53]: 5.19 µM
TGI [53]: 19.6 µM
GI50 [30]: 7.28 µM
TGI [30]: 18.9 µM
GI50 [31]: 11.2 µM
TGI [31]: 23.7 µM
GI50 [32]: 1.86 µM
TGI [32]: 4.12 µM
GI50 [33]: 16.1 µM
TGI [33]: 30 µM
GI50 [35]: 2.94 µM
TGI [35]: 8.53 µM
GI50 [37]: 2.65 µM
TGI [37]: 6.81 µM
GI50 [38]: 2.97 µM
TGI [38]: 8.84 µM

Nc1c(C(=O)N/N=C/c2ccc(Cl)cc2)sc(=S)n1-c1ccccc1
TGI [1]: > 100 µM
TGI [2]: > 100 µM
TGI [3]: > 100 µM
TGI [4]: > 100 µM
TGI [5]: > 100 µM
TGI [6]: > 100 µM
TGI [7]: > 100 µM
TGI [9]: > 100 µM
TGI [10]: > 100 µM
TGI [54]: > 100 µM
TGI [12]: > 100 µM
TGI [13]: > 100 µM
TGI [45]: > 100 µM
TGI [14]: 91.9 µM
TGI [15]: > 100 µM
TGI [48]: > 100 µM
TGI [16]: > 100 µM
TGI [17]: > 100 µM
TGI [18]: > 100 µM
TGI [19]: > 100 µM
TGI [21]: > 100 µM
TGI [22]: > 100 µM
TGI [23]: > 100 µM
TGI [24]: > 100 µM
TGI [25]: > 100 µM
TGI [26]: > 100 µM
TGI [27]: > 100 µM
TGI [28]: > 100 µM
TGI [29]: > 100 µM
TGI [53]: > 100 µM
TGI [30]: > 100 µM
TGI [31]: > 100 µM
TGI [32]: > 100 µM
TGI [33]: > 100 µM
TGI [34]: > 100 µM
TGI [35]: > 100 µM
TGI [36]: > 100 µM
TGI [38]: > 100 µM

— PubChem BioAssay (NCI)
